Test results published in ChEMBL document CHEMBL1148380, “Quantitative structure-activity relationships for gammadelta T cell activation by bisphosphonates” (J Med Chem, 2004).

Experiments:
Type in all cases: functional, cell-based
Details in all cases: Homo sapiens, T-cell
[1] = Inhibitory activity, for stimulation of TNF-alpha release in gamma-delta T cells, using individual observed maximum TNF-alpha release
[2] = Inhibitory activity, for stimulation of TNF-alpha release in gamma-delta T cells, using a constrained maximum TNF-alpha release of 2700 pg/mL
[3] = pIC50 value for stimulation of TNF-alpha release in gamma-delta T cells, using a constrained maximum TNF-alpha release of 2700 pg/mL
[4] = pIC50 value for stimulation of TNF-alpha release in gamma-delta T cells, using individual observed maximum TNF-alpha release

Row | Structure (SMILES) | IC50 [1] | IC50 [2] | IC50 [3] | IC50 [4]
1 | O=P(O)(O)C(O)(CCNCCCOc1ccccc1)P(=O)(O)O | 98 µM | 143 µM | 141 µM | 97.7 µM
2 | O=P(O)(O)C(NC1CCC1)P(=O)(O)O [(CYCLOBUTYLAMINO)METHYLENEDIPHOSPHONIC ACID] | 56 µM | 127 µM | 126 µM | 56.2 µM
3 | O=P(O)(O)C(NC1CCCCCCC1)P(=O)(O)O [(CYCLOOCTYLAMINO)METHYLENEDIPHOSPHONIC ACID] | 44 µM | 110 µM | 110 µM | 43.7 µM
4 | CC1CCCN(C(P(=O)(O)O)P(=O)(O)O)C1 (configuration not stated) |  | 348 µM | 347 µM | 
5 | CCCNC(P(=O)(O)O)P(=O)(O)O [(PROPYLAMINO)METHYLENEDIPHOSPHONIC ACID] | 18 µM | 35 µM | 34.7 µM | 18.2 µM
6 | CCN(C1CCCCC1)C(P(=O)(O)O)P(=O)(O)O |  | 103 µM | 102 µM | 
7 | CCCCCCCCCNC(P(=O)(O)O)P(=O)(O)O [(NONYLAMINO)METHYLENEDIPHOSPHONIC ACID] | 66 µM | 169 µM | 170 µM | 66.1 µM
8 | CCC(C)CNC(P(=O)(O)O)P(=O)(O)O (configuration not stated) | 9 µM | 19 µM | 19.5 µM | 8.91 µM
9 | O=P(O)(O)C(CNc1ccccn1)P(=O)(O)O | 4.8 µM | 14 µM | 14.5 µM | 4.9 µM
10 | CN(C)CCCC(P(=O)(O)O)P(=O)(O)O |  | 400 µM | 398 µM | 
11 | O=P(O)(O)C(NC1CCCCCC1)P(=O)(O)O [INCADRONIC ACID] | 11 µM | 15 µM | 14.8 µM | 11.5 µM
12 | O=P(O)(O)C(O)(Cc1cnc2ccccn12)P(=O)(O)O [MINODRONIC ACID] | 4.1 µM | 8 µM | 7.94 µM | 4.07 µM
13 | NCCCC(O)(P(=O)(O)O)P(=O)(O)O [ALENDRONIC ACID] | 53 µM | 52 µM | 52.5 µM | 53.7 µM
14 | Cc1cccc(NC(P(=O)(O)O)P(=O)(O)O)n1 | 12 µM | 28 µM | 28.2 µM | 12 µM
15 | O=[N+]([O-])c1cccc(CC(O)(P(=O)(O)O)P(=O)(O)O)c1 |  | 110 µM | 110 µM | 
16 | CCCCCCC(O)(P(=O)(O)O)P(=O)(O)O | 213 µM | 2110 µM | 2090 µM | 214 µM
17 | CC1CCCC(C)N1C(P(=O)(O)O)P(=O)(O)O (configuration not stated) |  | 1650 µM | 1660 µM | 
18 | Nc1ccc(CC(O)(P(=O)(O)O)P(=O)(O)O)cc1 | 251 µM | 19900 µM | 20000 µM | 251 µM
19 | O=P(O)(O)C(Cc1cccnc1)P(=O)(O)O |  | 10 µM | 10.5 µM | 
20 | O=P(O)(O)C(NC1CCCCC1)P(=O)(O)O [(CYCLOHEXYLAMINO)METHYLENEDIPHOSPHONIC ACID] | 40 µM | 47 µM | 46.8 µM | 39.8 µM
21 | O=P(O)(O)C(O)(C[n+]1cc[nH]c1)P(=O)(O)O | 5.2 µM |  |  | 5.25 µM
22 | O=P(O)(O)C(N1CCSCC1)P(=O)(O)O [THIOMORPHOLINOMETHYLENEDIPHOSPHONIC ACID] | 190 µM | 597 µM | 603 µM | 191 µM
23 | O=P(O)(O)C(Nc1cccnc1)P(=O)(O)O | 14 µM | 24 µM | 24 µM | 14.5 µM
24 | O=P(O)(O)C(N1CCCCCC1)P(=O)(O)O [N-(HEXAMETHYLENEIMINO)METHYLENEBISPHOSPHONIC ACID] | 11 µM | 13 µM | 12.9 µM | 11.2 µM
25 | Cc1cccc(CC(O)(P(=O)(O)O)P(=O)(O)O)c1 |  | 9020 µM | 8910 µM | 
26 | CCCN(CCC)C(P(=O)(O)O)P(=O)(O)O [(DIPROPYLAMINO)METHYLENEDIPHOSPHONIC ACID] | 41 µM | 83 µM | 83.2 µM | 40.7 µM
27 | CCCCCNC(P(=O)(O)O)P(=O)(O)O [(PENTYLAMINO)METHYLENEDIPHOSPHONIC ACID] | 7.8 µM | 41 µM | 40.7 µM | 7.76 µM
28 | Cc1cc(Br)cnc1NC(P(=O)(O)O)P(=O)(O)O |  | 72 µM | 72.4 µM | 
29 | CN(CCc1ccccc1)CCC(O)(P(=O)(O)O)P(=O)(O)O | 19 µM | 23 µM | 22.9 µM | 19.5 µM
30 | NCCCCC(O)(P(=O)(O)O)P(=O)(O)O | 102 µM | 213 µM | 214 µM | 102 µM
